Assay results published in a melting point compilation (Tetko et al.; mined from patent text by program, amines drawn as free bases though some values may be those of a salt).

Compound | melting point [°C]
COC(=O)c1cc(F)ccc1Nc1ccnc2c(Cl)cccc12 | 196
Cc1ccc(-n2nc(CC(=O)N(C)C)c3c4ccc(Cl)cc4n(C)c3c2=O)cn1 | 253 to 255
CC(C)(C)c1cc(CCCCCCc2cc(C(C)(C)C)c(O)c(C(C)(C)C)c2)cc(C(C)(C)C)c1O | 147 to 149
Cc1cc(=O)n(C)c2[nH]n(-c3ccccc3)c(=O)c12 | 179 to 181
Cc1cccc(N2Cc3nc(CO)nn3-c3ccccc32)c1C | 186 to 194
CC(C)(C)c1cc(CCc2ccccc2NC(=O)NCc2ccco2)cc(C(C)(C)C)c1O | 170
CC(CS)C(=O)Nc1cccc(C(=O)O)n1 (stereo not drawn) | 178 to 179
O=C(O)CN1C(=O)C(NC(=O)Nc2cccc3ccccc23)CCc2ccccc21 (stereo not drawn) | 215 to 216
CCCCc1cc(C(=O)Nc2nnn[nH]2)nc(-c2ccc(N)cc2)c1 | > 300
O=C1C(=O)c2ccc(-c3cccnc3)cc2C2=C1SCC1(CCN(C(=O)c3cccc(Cl)c3)CC1)O2 | 240 to 242
CC(C)n1nc(-c2c(-c3ccccc3)nn3ccc(N4CCN(c5ccccn5)CC4)cc23)ccc1=O | 221 to 222
COC(=O)c1nc2nc(C(C)C)cc(O)n2n1 | 198 to 201
CS(=O)(=O)c1ccc(C(=O)c2cc(-c3ccc(S(C)(=O)=O)cc3)c(N3CCOCC3)s2)cc1 | 190
NC(=NOCC1CC1)c1c(F)cccc1C(F)(F)F | 63 to 64
COc1cc(C(=O)N(C(C)C)C2CCCCC2)ccc1Cn1c(CN(C)C)nc2ncccc21 | 141 to 142
CCOc1nc(OCC)nc(N2CCN(C=O)CC2)n1 | 106 to 108
CS(=O)(=O)c1cccc(NC(=O)c2cnn3c(C(F)F)cc(-c4ccc(C(F)(F)F)c(Cl)c4)nc23)c1 | 228
CCN(CC)C(=O)c1ccc(C(c2ccccc2)C2CCNCC2)cc1 (stereo not drawn) | 160 to 162
CCC1(C)SC(C)N=C1C (stereo not drawn) | 82

Compound | melting point [°C]
O=c1ccc(S(=O)(=O)c2cc3cc(Cl)cc(Cl)c3[nH]2)n[nH]1 | > 250
OCCN1CCN(c2ccc3nc(-c4ccc(Cl)s4)c(-c4ccncc4)n3n2)CC1 | 216 to 218
COc1cc(C=CC(=O)Nc2cnc3ccc(C(C)C)cc3c2-c2ccccc2Cl)cc(OC)c1OC(C)=O | 138
CS(=O)(=O)NC(=O)CCCCOc1cccc(O)c1C=O | 136 to 138
CC(C)(C)NC(=O)[C@@H]1C[C@H](Cl)CN1C(=O)[C@@H](O)[C@H](Cc1ccccc1)NC(=O)[C@H](CCS(C)(=O)=O)NC(=O)OCc1ccccc1 | 99 to 103
Cc1cccc(-c2[nH]c(C(C)C)nc2-c2cccc(-c3ccc(S(N)(=O)=O)cc3F)c2)n1 | 246 to 248
O=C(NC1CCCCC1)c1c(O)c2ccccc2n(Cc2ccc(F)cc2)c1=O | 168
COc1ccc(CCC(=O)NNC(=O)c2ccc3[nH]ncc3c2)cc1C(F)(F)F | 224 to 225
CN1CC(CN(CCC#N)C(N)=O)CC2c3cccc4[nH]cc(c34)CC21 (stereo not drawn) | 252 to 254
O=C(O)CCc1cn(Cc2ccc(OCc3cccnc3)cc2)cc1-c1ccccc1 | 131 to 132
N#Cc1ccc(F)c(C2=Nc3ccc(-c4ccccc4F)cc3NC(=O)C2)c1 | 239
COc1ccc(CC(=O)Nc2c(C)c(C)c3c(c2C)C(c2ccc(C(C)C)cc2)C(C)(C)O3)cc1 (stereo not drawn) | 171 to 173
CCCc1c(C(=O)C(C)C)c2ccc(C(=O)O)cc2n1Cc1ccccc1I | 210
COC(=O)CSc1nc(Nc2ccc(N3CCC(C)CC3)cc2)ncc1[N+](=O)[O-] | 180 to 184
Cn1cc(C2=CCN(CCCN3c4cccc5cccc(c45)S3(=O)=O)CC2)c2ccccc21 | 161
Cc1ccc(S(=O)(=O)OCC2Cc3cccc(-c4cccc(C(F)(F)F)c4)c3O2)cc1 (stereo not drawn) | 90 to 93
COC(=O)c1ccc(NC(=O)c2cc(C(C)C)c(C(C)C)o2)cc1 | 198 to 200
CC=C1CCC2C3CCC4CC(O)CCC4(C)C3C(=NO)CC12C (stereo not drawn) | 233 to 235
CCNC(=O)n1c([Si](C)(C)C)cc2ccccc21 | 96 to 99

Now from value to molecule:

melting point [°C] | Compound
152 | COC1(OC)C=CC=CC1C1c2cccc(O)c2C(=O)c2c(O)cccc21 (stereo not drawn)
122 to 124 | OC(CNCCCc1ccccc1)COc1cccc2[nH]ncc12 (stereo not drawn)
125 to 130 | COc1ccc(NC(=O)N(Cc2ccccc2)C2CCCCCC2)c(NC(=O)c2cc(C(C)(C)C)c(O)c(C(C)(C)C)c2)c1
82 | O=C(O)CCCCCc1nc2ccccc2o1
244 to 245 | CC(C)c1ccc2cc(C(=O)Nc3ccc(OCC(C)(C)C)c(C#N)c3)sc2n1
182 to 184 | COc1cc2nc(C)nc(Cl)c2cc1OC
177 to 178 | CCOC(=O)CCCn1c(Nc2c(C)nn(C)c2C)nc2c(Cl)ccc(C(CC)CC)c21
196 to 198 | CN(Cc1sc2c(=O)c(C(=O)NCc3ccc(Cl)cc3)cn(C)c2c1CO)CC(O)c1ccc2ccccc2n1 (stereo not drawn)
64 to 65 | CCc1cc(CC)n2ncc(Br)c2n1
60 to 62 | COC(=O)C(C)(OCc1ccc2cc(OC)ccc2c1)C(F)(F)F (stereo not drawn)
166 to 168 | CC(=O)OC1C(CO)OC(c2ccc(Cl)c(Cc3ccc(-c4ccccc4)s3)c2)C(OC(C)=O)C1OC(C)=O (stereo not drawn)
56 to 57 | O=[N+]([O-])c1ccc(SCl)c(C(Cl)(Cl)Cl)c1
173 to 175 | Cc1nc(N2CCCC(Cc3ccc(F)cc3)C2=O)sc1C(=O)NCc1cccc(F)c1 (stereo not drawn)
187 to 190 | O=C1c2ccccc2C(=O)N1C1CCN(CCCc2c[nH]c3ccccc23)CC1
183 | NS(=O)(=O)c1ncccc1NC=O
37 to 39 | Cc1ccc(OCCCCCCN2CCN(c3nccs3)CC2)cc1
142 to 144 | CC1(C)COC(=O)N1c1nc(-c2cccc(Br)c2)cs1
85 to 86 | Cc1ccc(-c2ccc(Sc3ccccc3)s2)cc1
> 300 | CC1(C)C(=O)NC(=O)c2c1ccc1nc(Nc3c(Cl)cccc3Cl)sc21
224 to 225 | O=C(NCc1ccc(Cl)cc1)c1cn2c3c(cc(C#CCO)cc3c1=O)CC2CO (stereo not drawn)
83 to 87 | CCOC(=O)c1ccc2c(c1)sc1ccc(C)cc12
134 to 136 | COc1nc(C)nc(NC(=O)NS(=O)(=O)c2cccc3c2nnn3C)n1
150 | CCN1CCN([C@@H](CNS(=O)(=O)c2ccc(OCc3cc(C)nc4ccccc34)cc2)C(=O)NO)CC1
256 to 258 | CCOCCOc1ccc(COc2ccc3c(c2)C=C(C(=O)O)CCS3(=O)=O)cc1
170 | CCOC(=O)C1=C(N)NC(N)=C(C(=O)OCC)C1c1cccc(C(F)(F)F)c1
99.1 | COc1ccc(ON2CN=C(c3ccccc3F)O2)cc1
68 to 70 | CC(C)c1ccccc1SCc1cn(-c2ccc(S(C)(=O)=O)cc2)c(-c2ccc(Cl)cc2)n1
92 | CN1CCC(OC2c3ccc(Br)cc3CCn3cc(-c4ccccc4)nc32)CC1 (stereo not drawn)

melting point [°C] | Compound
201 to 202 | Oc1cccc(-c2cn3ccc4ccccc4c3n2)c1
199 | OP(O)C(NC(c1ccccc1)c1ccccc1)C1CCCCC1 (stereo not drawn)
183 to 184 | Cc1nnc(-c2ccc3occ(-c4ccc(S(=O)Cc5ccccc5)cc4)c3c2)o1 (stereo not drawn)
79 | O=S1CCON=C1c1cccc(F)c1 (stereo not drawn)
154 to 156 | Cc1nc2cc(-c3nn(C(C)c4oc5ccccc5c(=O)c4-c4cccc(F)c4)c4ncnc(N)c34)ccc2[nH]1 (stereo not drawn)
148 to 154 | N#CCCNC(=O)c1cccc(-c2ccc3c(c2)N(c2ccc(Cl)cc2Cl)CC3)c1
90 to 91 | O=S1(=O)OCC(COC(C(F)(F)F)(C(F)(F)F)C(F)(F)F)(COC(C(F)(F)F)(C(F)(F)F)C(F)(F)F)CO1
280 to 290 | Cc1c(-c2cccnc2)sc2nc(N)[nH]c(=O)c12
245 to 247 | COc1cc2c3c(n(Cc4ccccc4)c2cc1OC)CCCC3C(=O)N1CCN(c2ccccc2)CC1 (stereo not drawn)
150 to 153 | O=C(O)C=Cc1ccc(Oc2c(-c3ccc(O)cc3)ccc3cc(O)ccc23)cc1
211 to 213 | Cc1cc2c(c(S(N)(=O)=O)n1)C(=O)OC2
182 to 185 | Cc1cccc(C(=O)c2[nH]c3cc(Cl)ccc3c2NC(=O)CC(C)C)c1
146 | CCOC(=O)CC(c1ccccc1)N(C(=O)CNC(=O)Nc1cccc(C)c1)c1ccccc1 (racemic)
116 to 118 | CN(C(CCn1c(=O)cc(C(F)(F)F)[nH]c1=O)C(=O)NO)S(=O)(=O)c1ccc(Oc2ccncc2)cc1 (stereo not drawn)
163 to 165 | O=C1N(CCCCN2CCN(c3n[nH]c4cc(F)ccc34)CC2)CSC12CCCCC2
96 | O=S1(=O)c2cccc3cccc(c23)N1CCCl
63 to 65 | C=CC[C@@H]1CCc2cc(OC)ccc2[C@H]1O (relative stereo)
117 to 119 | CCCNCc1cc2ccc(NC(=O)c3ccc(OC[C@@H]4CCCO4)cc3)c(C)c2[nH]1
196 to 198 | CCOC(=O)c1c2ccc(CC(=O)NOCC(=O)N3CCOCC3)ccc-2c(C(=O)OCC)c1N
94 to 96 | c1cc(CSSc2nc3ccccc3s2)cc(CSSc2nc3ccccc3s2)c1
63 to 64 | CCC1(CC)c2ccccc2C(CC)(CC)N1OC(C)(C)C#N
150 to 151 | COC(=O)c1cc2c3ccccc3n(C(=O)c3ccccc3)c2s1
89 to 91 | CC(=O)OCCN1CCNC1=Nc1ccccc1N1CCOCC1
165 to 167 | COc1ccc(S(=O)(=O)N(Cc2ccccc2)c2c(C(=O)O)cnc3c2c(C)nn3C)cc1
127 to 129 | COc1ccc(S(=O)(=O)N(Cc2ccccc2)C(C)C(=O)NO)cc1 (stereo not drawn)
152 to 154 | Cc1ccccc1-c1ccc(C(=O)N2Cc3ccc(C(=O)NC(C)CCc4ccccc4)n3Cc3ccccc32)cc1C (stereo not drawn)
86.9 to 88.7 | COc1c(F)cc2[nH]c(C)c(CC(=O)OCC[Si](C)(C)C)c2c1F
